Results as given in US11559527B2 (priority 2017, dated 2023).

Experiments:
[1] = tested on: MCF7 cells; experiment: Bradford assay (protein content as indicator of cell viability); type: cell-based, Human; settings: 2 days
Method: The inventors sought to evaluate whether mDIVI-1-induced inhibition of DRP1 has repercussion on the viability of MCF7 cells. […] Similar results were obtained using the Bradford assay, which measures protein content, as an indicator of cell viability.
EXTRACELLULAR FLUX […] AND BRADFORD ASSAY: Extracellular acidification rate (ECAR) and oxygen consumption rate (OCR) were measured in a XF96 Extracellular Flux Analyzer (Seahorse Biosciences). Briefly, 1×10^4 MCF7 cells per well were seeded in XF96 plates and incubated with complete medium. When cells were attached, mDIVI-1 and vehicle treatments were added. Six replicates were run for each condition. After 48 hours, un-buffered DMEM XF medium supplemented with 2 mM glutamine (pH 7.4) was added to the cells, and placed in a 37° C. CO2-free incubator for 1 hour. Ten mM glucose, 1 μM oligomycin and 100 mM 2-deoxyglucose (2-DG) were injected into the media at different time points and ECAR was measured. Likewise, ECAR and OCR were quantified using un-buffered DMEM XF medium supplemented with 2 mM glutamine, 2 mM sodium pyruvate and 10 mM glucose. One μM oligomycin, 0.9 μM FCCP and 1 μM rotenone and antimycin A were injected into the media at different time points and OCR and ECAR were measured. […] All parameters were calculated according to manufacturer.

[2] = tested on: A375 melanoma cells; experiment: Tumorsphere formation assay, A375; type: cell-based
Method: One of the gold standard techniques for the study and identification of CSCs is the sphere formation assay, an in vitro culture system that enriches for CSCs. Under these anchorage-independent culture conditions, CSCs preferentially form the so-called tumorspheres, whereas more differentiated cells die rapidly.
TUMORSPHERE FORMATION ASSAY: A single cell suspension was prepared using enzymatic (1× Trypsin-EDTA, T3924, Sigma Aldrich), and manual disaggregation (25 gauge needle). […] After 5 days of culture in a humidified incubator at 37° C., tumorspheres bigger than 50 μm were counted using an eye piece graticule.

[3] = tested on: MCF7 cells; experiment: Label-free quantitative proteomics; type: cell-based, Human; settings: MCF7, 10 μM
Excerpt: Following protein digestion with trypsin, peptide fractions were processed on an LTQ-Orbitrap XL mass spectrometer. Those peptides identified were further analyzed to find proteomic changes between mDIVI-1-treated and vehicle-treated MCF7 cells, as described before. […] First, the inventors searched the proteomics datasets for changes in proteins involved in metabolism. […] That may possibly translate into a loss of antioxidant power, as the pentose phosphate pathway is a major source of NADPH.
LABEL-FREE SEMI-QUANTITATIVE PROTEOMICS: Chemicals and sample preparation. Formic acid, trifluoroacetic acid, ammonium formate (10 M), ammonium bicarbonate TCEP (Tris (2-carboxyethyl)phosphine hydrochloride), MMTS (Methyl methanethiosulfonate) and trypsin were all obtained from Sigma. HPLC gradient grade acetonitrile was obtained from Fisher Scientific. Briefly, 2×10^6 MCF7 cells were seeded in 15 cm plates until cells were attached. […] As control, vehicle-treated cells were processed in parallel. After 48 hours of treatment, cells were lysed in RIPA buffer (R0278, Sigma) and kept at 4° C. for 20 minutes with rotation. Lysates were cleared by centrifugation for 10 minutes at 10,000×g and supernatants were collected and kept frozen at −80° C.
PROTEIN DIGESTION: Lysate samples were thawed to room temperature and their concentrations equalized to 1 μg/μL (50 μL volume) with RIPA buffer, and further processed for trypsin digestion by sequential reduction of disulphide bonds with TCEP and alkylation with MMTS. Briefly, 1 μL benzonase (Novagen) was added to the 50 μL aliquot and placed on ice for 15 minutes. The sample was then taken to dryness using a SpeedVac, and resuspended in 22.5 μL trypsin reaction buffer (40 mM ammonium bicarbonate and 9% acetonitrile). One μL of 50 mM TCEP solution was added to each sample, mixed briefly and placed on a heater block at 60° C. for 60 minutes. After cooling to room temperature, 0.5 μL of 200 mM MMTS solution was added to each sample and allowed to react for 15 minutes. Trypsin was added in two waves to ensure efficient digestion of the sample. Firstly, 20 μg of sequencing grade trypsin was resuspended in 1800 μL of trypsin reaction buffer; 225 μL of this solution were added to each sample for digestion, and the reactions were left at 37° C. overnight with shaking (600 rpm). The following morning, a further aliquot of trypsin was added. Two ml of trypsin reaction buffer was added to 20 μL of sequencing grade trypsin; 250 μL of this solution were added to each of the digest samples from overnight, and the reactions were left at 37° C. for 4 hours with shaking (600 rpm). Thirty-five μL 10% formic acid were added to the 500 μL digest sample (0.7% final concentration of formic acid) to stop the digestion. The digested solution was diluted in 7.5 mL of acetonitrile containing 0.3% formic acid.
HILIC solid phase extraction (SPE) of peptides. PolyhydroxyethylA SPE 12 μm, 300 A, 300 mg cartridges (obtained from PolyLC) were used for the HILIC procedure. Prior to use, cartridges required an overnight soak in 50 mM formic acid followed by rinsing with water the following day. Cartridges were preconditioned with 2 mL of Buffer A (90% acetonitrile, 5 mM ammonium formate, pH 2.7) followed by 2 mL of Buffer B (5 mM ammonium formate, pH 2.7) and finally re-equilibrated with 10 mL Buffer A. The diluted samples were loaded onto the cartridges and washed with a further 10 mL Buffer A. Finally, peptides were eluted in 1 mL Buffer C (9 parts Buffer B plus 1 part Buffer A) and the samples dried on a Speedvac to remove organic solvent prior to LC-MS/MS analysis.
LC-MS/MS analysis. Lyophilised digests were resuspended in 50 μL of 0.1% TFA to give an approximate concentration of 1 μg/μL. One μL injection volumes were used throughout resulting in an on-column peptide loading of approximately 1 μg per injection. Analysis was performed in quintuplicate for each sample. […]

Which MCF7 protein content ([1]; 20 μM) does the source give for `COc1cc(-n2c(S)nc3ccccc3c2=O)c(Cl)cc1Cl` [mDIVI-1, 3-(2,4-Dichloro-5-methoxyphenyl)-2-sulfanyl-4(3H)-quinazolinone] here?
The MCF7 protein content was “significantly reduced”.

And the MCF7 protein content ([1]; 50 μM)?
Its MCF7 protein content is “significantly reduced”.

And the “decrease of tumorsphere forming capacity” value ([2]; A375, 10 μM)?
Its value is “over 35%”.

And the “decrease of tumorsphere forming capacity” value ([2]; A375, 50 μM)?
The value was “over 90%”.

What about the “Change in expression: Hexokinase 1 (HK1)” value ([3]; Glycolysis, 48 hours) of the same compound?
The value was “↓Infinite”.

And the “BMP7 expression change (proteomics)” value ([3]; 48 hours vs vehicle)?
Its value is −47.17.

What about the “CELSR2 expression change (proteomics)” value ([3]; 48 hours vs vehicle) of the same compound?
Its value is −1.6.

And the “EPCAM expression change (proteomics)” value ([3]; 48 hours vs vehicle)?
The value was −1.58.

What about the “EphA2 expression change (proteomics)” value ([3]; 48 hours vs vehicle) of the same compound?
Its value is −1.74.

What about the “F11 receptor expression change (proteomics)” value ([3]; 48 hours vs vehicle) of the same compound?
Its value is −1.70.

What about the “LAMP1 expression change, upregulated (proteomics)” value ([3]; 48 hours vs vehicle) of the same compound?
Its value is 2.83.

And the “STAT3 expression change (proteomics)” value ([3]; 48 hours vs vehicle)?
The value was −1.83.

And the “ZO-1 expression change (proteomics)” value ([3]; 48 hours vs vehicle)?
The value was −1.62.

And the “collagen type IV upregulation (proteomics)” value ([3]; 48 hours vs vehicle)?
Its value is 1.9 fold.

What about the “desmoplakin expression change (proteomics)” value ([3]; 48 hours vs vehicle) of the same compound?
Its value is −4.58.

What about the “junction plakoglobin expression change (proteomics)” value ([3]; 48 hours vs vehicle) of the same compound?
Its value is −1.65.

And the “keratin 8 expression change (proteomics)” value ([3]; 48 hours vs vehicle)?
Its value is −5.24.

And the “keratin 18 expression change (proteomics)” value ([3]; 48 hours vs vehicle)?
The value was −12.21.
